# According to patent US10570184B2, “GLP-1/glucagon receptor co-agonists for medical use” (Novo Nordisk A/S, priority 2014, dated 2020):
# Starred links: 1 amine or outer side, 2 acyl side, 3 side chain; linkers in the order of their positions; H or OH if unused. Non-standard residues stand in square brackets, D forms with d. Residues, ends and D or L forms follow the SMILES beside them. Groups on a side chain read outwards from the residue. *: point of attachment. C18 diacid = O=C(O)CCCCCCCCCCCCCCCCC(=O)*; γGlu = O=C(O)[C@H](CCC(=O)[*:2])N[*:1]; Ac4c = NC1(C(=O)O)CCC1; AEEA = NCCOCCOCC(=O)O; Aib = CC(C)(N)C(=O)O
# Target: T1, human glucagon receptor (Homo sapiens, UniProt P47871)
# T1 construct: expressed in transfected cells; host or cells: membranes of BHK cells, clone BHK hGCGR A3*25
# T1 sequence (P47871 26-477): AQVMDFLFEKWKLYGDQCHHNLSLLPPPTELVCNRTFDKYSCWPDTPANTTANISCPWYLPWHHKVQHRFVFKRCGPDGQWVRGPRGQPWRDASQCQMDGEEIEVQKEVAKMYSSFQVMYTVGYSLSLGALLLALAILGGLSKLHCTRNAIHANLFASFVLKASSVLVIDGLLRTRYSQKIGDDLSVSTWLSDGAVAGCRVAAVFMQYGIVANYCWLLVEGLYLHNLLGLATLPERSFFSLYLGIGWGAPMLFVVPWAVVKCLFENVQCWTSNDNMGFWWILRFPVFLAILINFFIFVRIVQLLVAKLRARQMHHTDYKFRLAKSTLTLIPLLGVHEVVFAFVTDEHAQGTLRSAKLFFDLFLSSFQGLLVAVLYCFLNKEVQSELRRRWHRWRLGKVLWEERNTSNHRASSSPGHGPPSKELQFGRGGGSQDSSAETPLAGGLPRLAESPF
# Assay: Assay (I)(b) glucagon receptor activation, CRE luciferase reporter gene assay in BHK cells
# Format: cell-based
# Conditions: without presence of serum albumin; read-out: GlucagonR EC50 (pM), [Assay (I)(b)]
# Description: The purpose of this example was to test the activity or potency, of the glucagon derivatives of the invention, in vitro. The in vitro potency is the measure of human GLP-1 receptor (GLP-1R) or glucagon receptor (glucagonR) activation, respectively, in a whole cell assay. In vitro potency was determined by measuring the response of human GLP-1 or glucagon receptor, respectively, in a reporter gene assay. The assay was performed in a stably transfected BHK cell line that expresses either the human GLP-1 receptor or the human glucagon receptor and contains the DNA for the cAMP response element (CRE) coupled to a promoter and the gene for firefly luciferase (CRE luciferase). […] When assay incubation was completed, the luciferase substrate (luciferin) was added and the enzyme converted luciferin to oxyluciferin and produces bioluminescence. The luminescence was measured as the readout for the assay. The cells used in this assay (clone pLJ6′-4-25) were BHK cells with BHK570 as a parent cell line expressing the CRE luciferase gene (clone BHK/KZ10-20-48) and were established by further transfection with the human glucagon receptor (clone pLJ6′ in pHZ-1 vector). The cells were cultured at 5% CO2 in DMEM medium with 10% FBS, 1×GlutaMAX, 1 mg/ml G418, 240 nM MTX (methotrexate) and 1% pen/strep (penicillin/streptomycin). They were aliquoted and stored in liquid nitrogen. Before each assay, an aliquot was taken up and washed three times in PBS before being suspended at the desired concentration in assay medium. For 96-well plates the suspension was made to give a final concentration of 5×10EE3 cells/well. The following chemicals were used in the assay: Pluronic F-68 (10%) (Gibco 2404), ovalbumin (Sigma A5503), DMEM w/o phenol red (Gibco 11880-028), 1 M Hepes (Gibco 15630), Glutamax 100× (Gibco 35050) and steadylite plus (PerkinElmer 6016757). Assay Medium consisted of DMEM w/o phenol red, 10 mM Hepes, 1× GlutaMAX, 2% Ovalbumin and 0.2% Pluronic F-68. Cell stocks were thawed in a 37° C. water bath. Cells were washed three times in PBS. The cells were counted and adjusted to 5×10EE3 cells/50 μl (1×10EE5 cells/ml) in Assay Medium. A 50 μl aliquot of cells was transferred to each well in the assay plate. Stocks of the test compounds and reference compounds were diluted to a concentration of […] in Assay Medium. Compounds were diluted 10-fold to give the following concentrations: 2×10EE-6 M, 2×10EE-7 M, 2×10EE-8 M; 2×10EE-9 M, 2×10EE-10 M, 2×10EE-11 M, 2×10EE-12 M and 2×10EE-13 M. For each compound a blank assay medium control was also included. A 50 μl aliquot of compound or blank was transferred from the dilution plate to the assay plate. Compounds were tested at the following final concentrations: 1×10EE-6 M, 1×10EE-7 M, 1×10EE-8 M; 1×10EE-9 M, 1×10EE-10 M, 1×10EE-11 M and 1×10EE-12 M and 1×10EE-13 M. The assay plate was incubated for 3 h in a 5% CO2 incubator at 37° C. The assay plate was removed from the incubator and allowed to stand at room temperature for 15 min. A 100 μl aliquot of steadylite plus reagent was added to each well of the assay plate (reagent is light sensitive). Each assay plate was covered with aluminum foil to protect it from light and shaken for 30 min at room temperature. Each assay plate was read in a Perkin Elmer TopCount NXT instrument. The data from the TopCount instrument was transferred to GraphPad Prism software. The software performed a non-linear regression (log(agonist) vs response-Variable slope (four parameter)). EC50 values were calculated by the software and reported in pM.
row,SMILES,EC50 [pM]
1,"CC[C@H](C)[C@H](NC(=O)[C@H](CC(C)C)NC(=O)[C@H](Cc1c[nH]c2ccccc12)NC(=O)[C@H](C)NC(=O)[C@@H](NC(=O)[C@H](Cc1ccccc1)NC(=O)[C@H](CC(=O)O)NC(=O)[C@H](CCCNC(=N)N)NC(=O)[C@H](C)NC(=O)[C@H](CCCNC(=N)N)NC(=O)[C@H](CCCNC(=N)N)NC(=O)[C@H](C)NC(=O)[C@H](CC(=O)O)NC(=O)[C@H](CC(C)C)NC(=O)[C@H](Cc1ccc(O)cc1)NC(=O)[C@H](CCCCN)NC(=O)[C@H](CO)NC(=O)[C@H](Cc1ccc(O)cc1)NC(=O)[C@H](CC(=O)O)NC(=O)[C@H](CO)NC(=O)[C@@H](NC(=O)[C@H](Cc1ccccc1)NC(=O)[C@@H](NC(=O)CNC(=O)[C@H](CCC(N)=O)NC(=O)C(C)(C)NC(=O)[C@@H](N)Cc1c[nH]cn1)[C@@H](C)O)[C@@H](C)O)C(C)C)C(=O)N[C@@H](CCCCNC(=O)CC[C@H](NC(=O)CC[C@H](NC(=O)COCCOCCNC(=O)COCCOCCNC(=O)CC[C@H](NC(=O)CCCCCCCCCCCCCCCCC(=O)O)C(=O)O)C(=O)O)C(=O)O)C(=O)N[C@H](C(N)=O)[C@@H](C)O [Chem. 32, N^ε28-[(4S)-4-carboxy-4-[[(4S)-4-carboxy-4-[[2-[2-[2-[[2-[2-[2-[[(4S)-4-carboxy-4-(17-carboxyheptadecanoylamino)butanoyl]amino]ethoxy]ethoxy]acetyl]amino]ethoxy]ethoxy]acetyl]amino]butanoyl]amino]butanoyl]-[Aib2,Ala16,Arg20,Ala24,Ile27,Lys28]-Glucagon amide] (H-H[Aib]QGTFTSDYSKYLDARRARDFVAWLIK([γGlu-γGlu-AEEA-AEEA-γGlu-C18 diacid])T-NH2)",7
2,"CC[C@H](C)[C@H](NC(=O)[C@H](CC(C)C)NC(=O)[C@H](Cc1c[nH]c2ccccc12)NC(=O)[C@H](C)NC(=O)[C@@H](NC(=O)[C@H](Cc1ccccc1)NC(=O)[C@H](CC(=O)O)NC(=O)[C@H](CCC(N)=O)NC(=O)[C@H](C)NC(=O)[C@H](CCCNC(=N)N)NC(=O)[C@H](CCCNC(=N)N)NC(=O)[C@H](CO)NC(=O)[C@H](CCC(=O)O)NC(=O)[C@H](CC(C)C)NC(=O)[C@H](Cc1ccc(O)cc1)NC(=O)[C@H](CCCCN)NC(=O)[C@H](CO)NC(=O)[C@H](Cc1ccc(O)cc1)NC(=O)[C@H](CC(=O)O)NC(=O)[C@H](CO)NC(=O)[C@@H](NC(=O)[C@H](Cc1ccccc1)NC(=O)[C@@H](NC(=O)CNC(=O)[C@H](CCC(N)=O)NC(=O)C(C)(C)NC(=O)[C@@H](N)Cc1c[nH]cn1)[C@@H](C)O)[C@@H](C)O)C(C)C)C(=O)N[C@@H](CCCCNC(=O)CC[C@H](NC(=O)CC[C@H](NC(=O)COCCOCCNC(=O)COCCOCCNC(=O)CC[C@H](NC(=O)CCCCCCCCCCCCCCCCC(=O)O)C(=O)O)C(=O)O)C(=O)O)C(=O)N[C@H](C(N)=O)[C@@H](C)O [Chem. 34, N^ε28-[(4S)-4-carboxy-4-[[(4S)-4-carboxy-4-[[2-[2-[2-[[2-[2-[2-[[(4S)-4-carboxy-4-(17-carboxyheptadecanoylamino)butanoyl]amino]ethoxy]ethoxy]acetyl]amino]ethoxy]ethoxy]acetyl]amino]butanoyl]amino]butanoyl]-[Aib2,Glu15,Ala24,Ile27,Lys28]-Glucagon amide] (H-H[Aib]QGTFTSDYSKYLESRRAQDFVAWLIK([γGlu-γGlu-AEEA-AEEA-γGlu-C18 diacid])T-NH2)",66
3,"CC[C@H](C)[C@H](NC(=O)[C@H](CC(C)C)NC(=O)[C@H](Cc1c[nH]c2ccccc12)NC(=O)[C@H](CCC(N)=O)NC(=O)[C@@H](NC(=O)[C@H](Cc1ccccc1)NC(=O)[C@H](CCC(=O)O)NC(=O)[C@H](CCC(N)=O)NC(=O)[C@H](C)NC(=O)[C@H](CCCNC(=N)N)NC(=O)[C@H](CCCNC(=N)N)NC(=O)[C@H](CO)NC(=O)[C@H](CCC(=O)O)NC(=O)[C@H](CC(C)C)NC(=O)[C@H](Cc1ccc(O)cc1)NC(=O)[C@H](CCCCN)NC(=O)[C@H](CO)NC(=O)[C@H](CC(C)C)NC(=O)[C@H](CC(=O)O)NC(=O)[C@H](CO)NC(=O)[C@@H](NC(=O)[C@H](Cc1ccccc1)NC(=O)[C@@H](NC(=O)CNC(=O)[C@H](CCC(N)=O)NC(=O)C1(NC(=O)[C@@H](N)Cc2c[nH]cn2)CCC1)[C@@H](C)O)[C@@H](C)O)C(C)C)C(=O)N[C@@H](CCCCNC(=O)CC[C@H](NC(=O)COCCOCCNC(=O)COCCOCCNC(=O)CC[C@H](NC(=O)CC[C@H](NC(=O)CCCCCCCCCCCCCCCCC(=O)O)C(=O)O)C(=O)O)C(=O)O)C(=O)N[C@H](C(N)=O)[C@@H](C)O [Chem. 38, N^ε28-[(4S)-4-carboxy-4-[[2-[2-[2-[[2-[2-[2-[[(4S)-4-carboxy-4-[[(4S)-4-carboxy-4-(17-carboxyheptadecanoylamino)butanoyl]amino]butanoyl]amino]ethoxy]ethoxy]acetyl]amino]ethoxy]ethoxy]acetyl]amino]butanoyl]-[Acb2,Leu10,Glu15,Glu21,Ile27,Lys28]-Glucagon amide] (H-H[Ac4c]QGTFTSDLSKYLESRRAQEFVQWLIK([γGlu-AEEA-AEEA-γGlu-γGlu-C18 diacid])T-NH2; N-terminus assumed)",12
